The source made the active and inactive calls. The rule behind the calls is not given here.
What was measured:
CCRF-CEM [1] = experiment: Cytotoxicity against human CCRF-CEM cells after 72 hrs by XTT assay; type: functional, cell-based
CCRF-CEM [2] = experiment: Cytotoxicity against vinblastine-resistant human CCRF-CEM cells after 72 hrs by XTT assay; type: functional, cell-based
CCRF-CEM [3] = experiment: Cytotoxicity against taxol-resistant human CCRF-CEM cells after 72 hrs by XTT assay; type: functional, cell-based
CCRF-CEM [4] = experiment: Selectivity ratio of IC50 for vinblastine-resistant human CCRF-CEM cells to IC50 for human CCRF-CEM cells; type: functional
MX1 [5] = experiment: Cytotoxicity against human MX1 cells after 72 hrs by SRB assay; type: functional, cell-based; details: MX1, 72 h
HCT-116 = experiment: Cytotoxicity against human HCT116 cells after 72 hrs by SRB assay; type: functional, cell-based; details: HCT-116, 72 h
CCRF-CEM [6] = experiment: Selectivity ratio of IC50 for taxol-resistant human CCRF-CEM cells to IC50 for human CCRF-CEM cells; type: functional
Nucleic Acid [7] = experiment: Binding affinity to DNA in human H1299 cells assessed as formation of DNA cross-links at 200 uM followed by irradiation by modified single cell gel electrophoresis comet assay; type: cell-based
[8] = Cytotoxicity against human CL1-0 cells after 72 hrs by alamar blue assay; type: functional, cell-based; details: CL1-0, 72 h
[9] = Cytotoxicity against human CL1-5 cells after 72 hrs by alamar blue assay; type: functional, cell-based; details: CL1-5, 72 h
PC-3 = experiment: Cytotoxicity against human PC3 cells after 72 hrs by alamar blue assay; type: functional, cell-based; details: PC-3, 72 h
MCF7 = experiment: Cytotoxicity against human MCF7 cells after 72 hrs by alamar blue assay; type: functional, cell-based; details: MCF7, 72 h
[10] = Cytotoxicity against human H1299 cells after 72 hrs by alamar blue assay; type: functional, cell-based; details: NCI-H1299, 72 h
Mus musculus = experiment: Toxicity in nu/nu nude mouse assessed as body weight loss at 100 mg/kg, iv administered as injection in Q2D x 5 schedule measured on day 16; type: organism-based; parameters: dose 100 mg/kg, route intravenous; details: in vivo
MX1 [11] = experiment: Antitumor activity against human MX1 cells xenografted in nu/nu nude mouse assessed as complete tumor remission at 100 mg/kg, iv administered as injection in Q2D x 5 schedule measured on day 70; type: functional, organism-based; parameters: dose 100 mg/kg
MX1 [12] = experiment: Antitumor activity against human MX1 cells xenografted in nu/nu nude mouse assessed as complete tumor remission at 100 mg/kg, iv administered as injection in Q2D x 5 schedule measured on day 18; type: functional, organism-based; parameters: dose 100 mg/kg
Nucleic Acid [13] = experiment: Binding affinity to pEGFP-N1 DNA assessed as formation of interstrand cross-links with DNA by alkaline gel shift assay; type: nucleic-acid assay

Compound | IC50 (CCRF-CEM [1]) [nM] | IC50 (CCRF-CEM [2]) [nM] | IC50 (CCRF-CEM [3]) [nM] | Ratio IC50 (CCRF-CEM [4]) | IC50 (MX1 [5]) [nM] | IC50 (HCT-116) [nM] | Ratio IC50 (CCRF-CEM [6]) | Activity (Nucleic Acid [7]) [%] | IC50 [8] [nM] | IC50 [9] [nM] | IC50 (PC-3) [nM] | IC50 (MCF7) [nM] | IC50 [10] [nM] | Activity (Mus musculus) [%] | Activity (MX1 [11]) | Activity (MX1 [12]) | Activity (Nucleic Acid [13])
O=C(NNc1ccc(N(CCCl)CCCl)cc1)Nc1cc(-c2ccccc2)nc2cc3c(cc12)OCO3 | 258 | 495 | 574 | 1.92 | 1020 | 2020 | 2.22 |  |  |  |  |  |  |  |  |  | 
N[C@@H](Cc1ccc(N(CCCl)CCCl)cc1)C(=O)O |  |  |  |  |  |  |  | 39.7 |  |  |  |  |  |  |  |  | 
O=C(NNc1ccc(N(CCCl)CCCl)cc1)Nc1cc(-c2ccccc2F)nc2ccc(N3CCCC3)cc12 | 152 | 312 | 261 | 2.05 | 2260 | 192 | 1.72 |  | 694 | 511 | 954 | 1000 | 604 |  |  |  | 
O=C(Nc1ccc(N(CCCl)CCCl)cc1)Nc1cc(-c2ccccc2F)nc2cc3c(cc12)OCO3 | 3090 | 2350 | 2610 | 0.76 | 13100 | 25400 | 0.84 |  |  |  |  |  |  |  |  |  | 
COc1cccc(-c2cc(NC(=O)Nc3ccc(N(CCCl)CCCl)cc3)c3cc(OC)ccc3n2)c1 | 362 | 557 | 588 | 1.53 | 1830 | 3690 | 1.62 |  | 4730 | 3820 | 5880 | 3040 | 5690 | 13 | Active | Active | 
COc1cccc(-c2cc(NC(=O)Nc3ccc(N(CCCl)CCCl)cc3)c3cc4c(cc3n2)OCO4)c1 | 2820 | 2220 | 1960 | 0.79 | 20600 | 8870 | 0.7 |  |  |  |  |  |  |  |  |  | 
O=C(Nc1ccc(N(CCCl)CCCl)cc1)Nc1cc(-c2ccccc2F)nc2ccc(N3CCCC3)cc12 | 7650 | 12400 | 39900 | 1.62 | 115000 | 44200 | 5.22 |  |  |  |  |  |  |  |  |  | 
Cc1cc(NC(=O)Nc2ccc(N(CCCl)CCCl)cc2)c2cc(N(C)C)ccc2n1 | 107 | 242 | 308 | 2.3 | 184 | 300 | 2.9 |  | 1730 | 2520 | 2000 | 2130 | 714 |  |  |  | 
O=C(NNc1ccc(N(CCCl)CCCl)cc1)Nc1cc(-c2ccccc2F)nc2cc3c(cc12)OCO3 | 1420 | 3170 | 2980 | 2.23 | 42600 | 6480 | 2.09 |  | 3470 | 2650 | 4770 | 1820 | 491 |  |  |  | 
Cc1cc(NC(=O)Nc2ccc(N(CCCl)CCCl)cc2)c2cc3c(cc2n1)OCO3 | 279 | 652 | 605 | 2.3 | 584 | 402 | 2.2 |  | 6230 | 7270 | 5960 | 4910 | 5440 |  |  |  | 
CC[C@]1(O)C[C@@H]2CN(CCc3c([nH]c4ccccc34)[C@@](C(=O)OC)(c3cc4c(cc3OC)N(C)[C@H]3[C@@](O)(C(=O)OC)[C@H](OC(C)=O)[C@]5(CC)C=CCN6CC[C@]43[C@@H]65)C2)C1 [VINBLASTINE] |  |  |  | 679.5 |  |  | 106.2 |  |  |  |  |  |  |  |  |  | 
COc1cccc(-c2cc(NC(=O)NNc3ccc(N(CCCl)CCCl)cc3)c3cc4c(cc3n2)OCO4)c1 | 209 | 1130 | 734 | 5.43 | 749 | 1370 | 3.51 |  | 2870 | 4850 | 2980 | 3350 | 2050 |  |  |  | 
CC(=O)O[C@H]1C(=O)[C@@]2(C)[C@H]([C@H](OC(=O)c3ccccc3)[C@]3(O)C[C@H](OC(=O)[C@H](O)[C@@H](NC(=O)c4ccccc4)c4ccccc4)C(C)=C1C3(C)C)[C@]1(OC(C)=O)CO[C@@H]1C[C@@H]2O [PACLITAXEL] |  |  |  | 980 |  |  | 330 |  |  |  |  |  |  |  |  |  | 
COc1ccc2nc(C)cc(NC(=O)Nc3ccc(N(CCCl)CCCl)cc3)c2c1 | 309 | 458 | 313 | 1.5 | 645 | 830 | 1 |  | 5580 | 5330 | 3150 | 5190 | 1310 |  |  |  | 
COc1cccc(-c2cc(NC(=O)NNc3ccc(N(CCCl)CCCl)cc3)c3cc(N4CCCC4)ccc3n2)c1 | 354 | 833 | 568 | 2.35 | 1320 | 643 | 1.6 |  | 2920 | 5860 | 3340 | 5460 | 945 |  |  |  | 
COc1cccc(-c2cc(NC(=O)Nc3ccc(N(CCCl)CCCl)cc3)c3cc(Cl)ccc3n2)c1 | 1880 | 1030 | 1100 | 0.55 | 2250 | 4880 | 0.59 |  |  |  |  |  |  |  |  |  | 
COc1cccc(-c2cc(NC(=O)Nc3ccc(N(CCCl)CCCl)cc3)c3cc(N4CCCC4)ccc3n2)c1 | 102000 | 774000 | 2230 | 7.58 | 265000 | 168000 | 0.02 |  | 7090 | 9490 | 11100 | 6930 | 3810 |  |  |  | 
COc1cccc(-c2cc(NC(=O)NNc3ccc(N(CCCl)CCCl)cc3)c3cc(Cl)ccc3n2)c1 | 732 | 2130 | 2250 | 2.91 | 14600 | 13900 | 3.08 |  |  |  |  |  |  |  |  |  | 
COc1cccc(-c2cc(NC(=O)NNc3ccc(N(CCCl)CCCl)cc3)c3cc(OC)ccc3n2)c1 | 552 | 1620 | 2150 | 2.94 | 3460 | 3440 | 3.9 |  | 11700 | 11000 | 6450 | 15400 | 5990 |  |  |  | Active
O=C(NNc1ccc(N(CCCl)CCCl)cc1)Nc1cc(-c2ccccc2)nc2ccccc12 | 578 | 1220 | 908 | 2.11 | 1780 | 1260 | 1.57 |  | 4070 | 3010 | 10500 | 6240 | 4380 |  |  |  | Active
O=C(Nc1ccc(N(CCCl)CCCl)cc1)Nc1cc(-c2ccccc2)nc2cc3c(cc12)OCO3 | 2250 | 1840 | 2230 | 0.82 | 7410 | 9920 | 0.99 |  |  |  |  |  |  |  |  |  | 
Cc1cc(NC(=O)Nc2ccc(N(CCCl)CCCl)cc2)c2cc(N3CCCC3)ccc2n1 | 9020 | 12900 | 16900 | 1.43 | 16600 | 13400 | 1.87 |  |  |  |  |  |  |  |  |  | 
O=C(Nc1ccc(N(CCCl)CCCl)cc1)Nc1cc(-c2ccccc2)nc2ccccc12 | 1690 | 1660 | 1460 | 0.99 | 3470 | 7790 | 0.87 |  |  |  |  |  |  |  |  |  | 
